Measured values as given in patent publication US12298315B2, “Systems and methods to identify and treat subjects at risk for obstetrical complications” (Wayne State University, priority 2014, dated 2025).

How the values were obtained:
[1] = cited from earlier work
[2] = system: PIGF; assay: Maternal plasma PIGF concentration by immunoassay; type: in vivo, human; details: pravastatin 20 mg once daily since 17+4 weeks, one pregnant subject
Protocol: (§1) Sample collection and immunoassays. Blood was obtained by venipuncture and collected into tubes containing EDTA. Samples were centrifuged and stored at −70° C. Maternal plasma concentrations of sVEGFR-1, PIGF, and sEng were determined by sensitive and specific immunoassays (R&D Systems). The inter- and intra-assay coefficients of variation (CV) were: 1.4% and 3.9% for sVEGFR-1, 2.3% and 4.6% for sEng, and 6.02% and 4.8%, respectively, for PIGF. The sensitivity of the assays was 16.97 […], 0.08 ng/ml for sEng, and 9.52 […]. The laboratory personnel performing the assays were blinded to the clinical information.
(§2) Sample Collection and Immunoassays. Blood was obtained by venipuncture and collected into tubes containing EDTA at enrollment and every four weeks until the 24th week of gestation, as well as bi-weekly thereafter until delivery. Samples were centrifuged and stored at −70° C. Maternal plasma concentrations of sVEGFR-1, PIGF, and sEng were determined by immunoassays. The inter- and intra-assay coefficients of variation (CV) of the assays were: 1.4% and 3.9% for sVEGFR-1, 2.3% and 4.6% for sEng, and 6.02% and 4.8%, respectively, for PIGF. The sensitivities of the assays were 16.97 […], 0.08 ng/ml for sEng, and 9.52 […]. Laboratory personnel performing the assays were blinded to the clinical information.
(§3) The subject received subcutaneous 5000 units of heparin twice a day, 81 mg aspirin tablet daily, and IVIG 1 mg/kg every four weeks from the beginning of the current pregnancy. At 12 weeks and 2 days gestation, maternal PAPP-A concentration was low (1st percentile). […] However, bilateral UtA notching (mean UtA PI 2.23 (95th percentile)) was noted, and the plasma angiogenic/anti-angiogenic factor ratio concentrations were low. At 13, 15, and 17 weeks of gestation, plasma concentrations of sVEGFR-1 and sEng were extremely high (96th-98th percentile; see Table 9 and FIGS. 8A and 8C)), and those of PIGF were within normal limits (59th-62nd percentile; Table 9, FIG. 8B). The PIGF/sVEGFR-1 concentration ratios were low, in the 4th, 6th, and 10th percentiles, respectively (see FIG. 8D).
(§4) The subject was informed of these findings, of the poor prognosis associated with extremely high plasma sVEGFR-1 concentrations, and of the likelihood that this pregnancy, like their previous one, could be affected by MF. After being counseled extensively about the potential adverse events and issues of safety of pravastatin administration during pregnancy, and informed that there was little evidence from animal experiments that pravastatin could reverse angiogenic/anti-angiogenic factor imbalances, the subject was offered and opted to receive pravastatin 20 milligrams once daily at 17 weeks and 4 days of gestation. At 21 weeks of gestation, the plasma concentrations of sVEGFR-1 decreased to the normal range (56th percentile) while that of PIGF increased to 93rd percentile. Plasma sEng remained high, at the 94th percentile.
(§5) Sample Collection and Immunoassays. Venipuncture was performed serially at regular prenatal visits and admissions to the hospital for all normal and MPFD affected pregnancies. Blood was collected into tubes containing EDTA. Samples were centrifuged and stored at −70° C. until used for assay. Sensitive and specific immunoassays (R&D systems, Minneapolis, MN) were used to determine maternal plasma concentrations of PIGF, sEng, sVEGFR-1 and -2. All immunoassays utilized the quantitative sandwich enzyme immunoassay technique, and their concentrations in maternal plasma were determined by interpolation from the standard curves. The inter- and intra-assay coefficients of variation (CV) obtained in the laboratory were as follows: PIGF, 6.02 and 4.8%, respectively; s-Eng, 2.3 and 4.6%, respectively; sVEGFR-1, 1.4 and 3.9%, respectively; and sVEGFR-2, 2 and 4%, respectively. […]

[3] = system: sVEGFR-1; assay: Maternal plasma sVEGFR-1 concentration by immunoassay; type: in vivo, human; details: pravastatin 20 mg once daily since 17+4 weeks, one pregnant subject
Protocol: as §1, §2, §3, §4, §5

[4] = system: PIGF/sVEGFR-1; assay: Maternal plasma PIGF/sVEGFR-1 concentration ratio; type: in vivo, human; details: pravastatin 20 mg once daily since 17+4 weeks, one pregnant subject
Protocol: as §1
Quantile regression was used to calculate median analyte ratio concentrations (PIGF/sVEGFR-1, PIGF/sEng) conditional upon GA among uncomplicated pregnancies (n=886). MoM values were calculated for both analyte ratios for each subject. MoM cutoffs were calculated based on inspection of receiver operating characteristic (ROC) curves calculated for each outcome (stillbirth, late PE, severe late PE, and SGA without PE). Prognostic logistic regression models were constructed for each outcome, including the MoM cutoff and clinical risk factors. Covariables included in adjusted models were selected based on clinical knowledge. Model reduction was performed additionally based on the plausibility of regression coefficients, association with independent variables and the magnitude of change in the main effect parameter estimates. To account for potential model over-fitting, when van Houwelingen and le Cessie's heuristic shrinkage estimator fell below 0.85 (indicator of instability), bootstrap estimated linear shrinkage factors and Firth's penalized maximum likelihood estimation were used to calculate conservative estimates less likely to be affected by over-fitting.
Statistical Analysis. Proportions and 95% CI or medians and interquartile ranges were calculated for categorical and arithmetic variables. Pearson correlation coefficients were used to characterize bivariate relation among arithmetic variables. Quantile regression models were fitted to estimate expected medians of biochemical analyte concentrations and Doppler velocimetry PI as a function of gestational week at examination for women with uncomplicated term pregnancies. MoM were calculated for each biomarker (biochemical and sonographic) for each subject. […]

[5] = cited from earlier work; remark: listed apart in the source
[6] = system: sEng; assay: Maternal plasma sEng concentration by immunoassay; type: in vivo, human; details: pravastatin 20 mg once daily since 17+4 weeks, one pregnant subject
Protocol: as §1, §2, §3, §4, §5

[7] = dually perfused term human placental lobule

In the case of `CC[C@H](C)C(=O)O[C@H]1C[C@@H](C)C=C2C=C[C@H](C)[C@H](CC[C@@H]3C[C@@H](O)CC(=O)O3)[C@H]21` [lovastatin, Lovastatin], the “Adverse pregnancy outcomes, post marketing surveillance” value ([1]; subjects with an early exposure to these drugs) is given as “has not found any adverse pregnancy outcomes”.
For `CC[C@H](C)C(=O)O[C@H]1C[C@H](O)C=C2C=C[C@H](C)[C@H](CC[C@@H](O)C[C@@H](O)CC(=O)O)[C@H]21` [pravastatin, Pravastatin], the “Plasma concentration of PIGF” value ([2]; GA 19+5 weeks) was 306 pg/mL, the “Plasma concentration of PIGF” value ([2]; GA 21+6 weeks) was 644 pg/mL and the “Plasma concentration of PIGF” value ([2]; GA 25+3 weeks) was 768 pg/mL. The “Plasma PIGF, percentile for GA” value ([2]; GA 27+4 weeks) was “(74) percentile”, the “Plasma concentration of PIGF” value ([2]; GA 27+4 weeks) was 869 pg/mL and the “Plasma PIGF, percentile for GA” value ([2]; GA 29+4 weeks) was “(65) percentile”. For the same compound, the “Plasma concentration of PIGF” value ([2]; GA 29+4 weeks) was 821 pg/mL, the “Plasma PIGF, percentile for GA” value ([2]; GA 31+4 weeks) was “(44) percentile” and the “Plasma concentration of PIGF” value ([2]; GA 31+4 weeks) was 536 pg/mL. The “Plasma concentration of PIGF” value ([2]; GA 33+5 weeks) was 528 pg/mL, the “Plasma concentration of sVEGFR-1” value ([3]; GA 19+5 weeks) was 4148 pg/mL and the “Plasma concentration of sVEGFR-1” value ([3]; GA 21+6 weeks) was 1889 pg/mL. The “Plasma concentration of sVEGFR-1” value ([3]; GA 25+3 weeks) was 2854 pg/mL, the “Plasma concentration of sVEGFR-1” value ([3]; GA 27+4 weeks) was 3881 pg/mL and the “Plasma sVEGFR-1, percentile for GA” value ([3]; GA 27+4 weeks) was “(90) percentile”. For the same compound, the “Plasma concentration of sVEGFR-1” value ([3]; GA 29+4 weeks) was 4684 pg/mL, the “Plasma sVEGFR-1, percentile for GA” value ([3]; GA 29+4 weeks) was “(93) percentile” and the “Plasma concentration of sVEGFR-1” value ([3]; GA 31+4 weeks) was 6370 pg/mL. For the same compound, the “Plasma sVEGFR-1, percentile for GA” value ([3]; GA 31+4 weeks) was “(97) percentile”, the “Plasma concentration of sVEGFR-1” value ([3]; GA 33+5 weeks) was 11202 pg/mL and the PIGF/sVEGFR-1 concentration ratio ([4]; GA 19+5 weeks) was 0.07. The “PIGF/sVEGFR-1 ratio, percentile for GA” value ([4]; GA 19+5 weeks) was “(23) percentile”, the PIGF/sVEGFR-1 concentration ratio ([4]; GA 21+6 weeks) was 0.34 and the “PIGF/sVEGFR-1 ratio, percentile for GA” value ([4]; GA 21+6 weeks) was “(90) percentile”. The PIGF/sVEGFR-1 concentration ratio ([4]; GA 25+3 weeks) was 0.27, the “PIGF/sVEGFR-1 ratio, percentile for GA” value ([4]; GA 25+3 weeks) was “(51) percentile” and the PIGF/sVEGFR-1 concentration ratio ([4]; GA 27+4 weeks) was 0.22. For the same compound, the “PIGF/sVEGFR-1 ratio, percentile for GA” value ([4]; GA 27+4 weeks) was “(34) percentile”, the PIGF/sVEGFR-1 concentration ratio ([4]; GA 29+4 weeks) was 0.18 and the “PIGF/sVEGFR-1 ratio, percentile for GA” value ([4]; GA 29+4 weeks) was “(25) percentile”. For the same compound, the PIGF/sVEGFR-1 concentration ratio ([4]; GA 31+4 weeks) was 0.08, the “PIGF/sVEGFR-1 ratio, percentile for GA” value ([4]; GA 31+4 weeks) was “(10) percentile” and the PIGF/sVEGFR-1 concentration ratio ([4]; GA 33+5 weeks) was 0.04. The “PIGF/sVEGFR-1 ratio, percentile for GA” value ([4]; GA 33+5 weeks) was “(6) percentile”, the “Abnormal pregnancy outcomes following exposure” value ([1]; humans, exposure during pregnancy) was “abnormal pregnancy outcomes were not reported” and the “Pravastatin remained in the maternal circuit” value [5, 7] was 68%. For the same compound, the “Pravastatin retained by the placental tissue” value [5, 7] was 14%, the “Pravastatin transferred to the fetal circuit” value [5, 7] was 18% and the “Direction of placental transfer” value ([5]; fetal to maternal versus maternal to fetal compartment) was “higher transfer of pravastatin from the fetal to the maternal compartment than the reverse”. For the same compound, the “Plasma concentration of sEng” value ([6]; GA 19+5 weeks) was 13.1 ng/mL, the “Plasma sEng, percentile for GA” value ([6]; GA 19+5 weeks) was “(98) percentile” and the “Plasma concentration of sEng” value ([6]; GA 21+6 weeks) was 8.7 ng/mL. For the same compound, the “Plasma concentration of sEng” value ([6]; GA 25+3 weeks) was 8.8 ng/mL, the “Plasma sEng, percentile for GA” value ([6]; GA 25+3 weeks) was “(94) percentile” and the “Plasma concentration of sEng” value ([6]; GA 27+4 weeks) was 9.9 ng/mL. The “Plasma sEng, percentile for GA” value ([6]; GA 27+4 weeks) was “(95) percentile”, the “Plasma concentration of sEng” value ([6]; GA 29+4 weeks) was 12.7 ng/mL and the “Plasma sEng, percentile for GA” value ([6]; GA 29+4 weeks) was “(97) percentile”. The “Plasma concentration of sEng” value ([6]; GA 31+4 weeks) was 9.6 ng/mL, the “Plasma sEng, percentile for GA” value ([6]; GA 31+4 weeks) was “(85) percentile” and the “Plasma concentration of sEng” value ([6]; GA 33+5 weeks) was 12.7 ng/mL. The “Plasma sEng, percentile for GA” value ([6]; GA 33+5 weeks) was “(85) percentile”.
